Experimental data published in paper PMC12030568, “Binding Affinity of Synthetic Cannabinoids to Human Serum Albumin: Site Characterization and Interaction Insights” (Pharmaceuticals, 2025).
Entries after “also recorded” stand apart in the source; their conditions may differ.

Legend:
HSA [1] = details: cited from earlier work
[2] = biological target: human serum albumin (HSA) (Homo sapiens, UniProt P02768); assay: HPAC zonal elution on CHIRALPAK HSA column, bound fraction determination; details: for experimental %b to HSA (controls): ACN in mobile phase ranging from 2% to 20%; for Bound Fraction (%b) / Retention factor (k): values at 100% aqueous buffer, extrapolated from log k vs % ACN (11-16%), 67 mM potassium phosphate buffer pH 7.0, 25 °C
Procedure: Binding affinity studies were conducted using a series of commercially available synthetic cannabinoids (Figure 1). […] The binding affinity of the synthetic cannabinoids to HSA was measured based on previously established methods using HPAC [15, 35, 36]. […] The analyses were performed using zonal elution in reversed-phase mode. A potassium phosphate buffer solution (67 mM, pH 7.0) was selected as the mobile phase due to HSA’s stability in phosphate buffers, and to closely mimic physiological conditions. Several studies describe the use of this buffer in protein binding studies mimicking the physiological conditions of human plasma.
ACN was chosen for the HSA studies, as it is one of the most commonly used organic modifiers in HSA columns. However, a low percentage of the organic modifier was necessary to prevent protein denaturation and prolong the column’s lifespan. Additionally, the presence of an organic modifier must be carefully considered, as it can alter the number of available binding sites by affecting the spatial conformation of the protein [41].
To calculate the bound fraction (%b) to HSA, different proportions of organic modifier were added to the mobile phase, ranging from 11% to 15%. In the Supplementary Materials (Figures S1–S6), representative chromatograms for each synthetic cannabinoid are shown, as examples. […] All analyses were performed in triplicate. […] To determine the %b values in a 100% aqueous buffer, an extrapolation was performed by plotting the logarithm of the retention factor (log k) against the percentage of the organic modifier (Figure S7, Supplementary Materials).
To determine the experimental %b values for these controls, different proportions of ACN were added to the mobile phase, ranging from 2% to 20%.
The sample injections (10 µL) were carried out in triplicate, and the flow rate was set to 0.5 mL/min.
(§1) The analyses were performed in reversed-phase mode using as mobile phases mixtures of 67 mM potassium phosphate buffer solution (pH 7.0) with different proportions of ACN. […] All chromatographic analyses were performed at 25 ± 2 °C, under isocratic mode, with UV detection at 220, 254, and 300 nm. All mobile phases were prepared in a volume/volume ratio (v/v), filtered through polyamide membrane filters of 0.2 µm pore size from Whatman® GmbH (Dassel, Germany), and degassed in an ultrasonic bath (Soltec® Sonica® Ultrasonic cleaner) for at least 15 min before use.
Zonal analysis was the approach selected for the development of this work. The retention of the analyte is directly related to its interaction with the immobilized HSA, and can be described with Equation (1).(1) k=(KA1n1+…+KAnnn)mL/VM
The retention factor (k) is related to the number of binding sites and to their corresponding equilibrium constants (KA). VM represents the void volume and mL the total moles of the analyte binding sites. Equation (2) was used to calculate the retention factor [58].(2) k=tr−t0/t0
tr corresponds to the retention time of the analyte and t0 to the dead time. The t0 was taken from each individual run and was considered to be equal to the solvent front.
One application of zonal elution in HPAC is to measure the binding affinity of a drug to an immobilized protein.

HSA site II = biological target: T1, HSA site II (Homo sapiens, UniProt P02768); assay: Zonal displacement chromatography on HSA column with (S)-ibuprofen and L-tryptophan (site II probes); format: binding; details: 13% ACN; for Interaction with (S)-ibuprofen on HSA: competitor (S)-ibuprofen 5-20 µM in mobile phase, negative slope of 1/k vs concentration; for Binding profile at HSA Site II: competitor L-tryptophan 5-20 µM in mobile phase, plot of 1/k vs competitor concentration
T1 construct: catalogue number not given
Procedure: (§2) To gain deeper insights into HSA binding, displacement studies were conducted to further investigate the binding sites of the synthetic cannabinoids on this protein. […] These competitors are commonly used in displacement studies to elucidate binding interactions at specific HSA sites.
(§3) Various concentrations of the competitors were added to the mobile phase, based on previous studies.
(§4) The chromatographic data are plotted as 1/k versus the competitor concentration.
as §1
(§5) Stock solutions of all synthetic cannabinoids were prepared in EtOH at the concentration of 0.2 mg/mL and further diluted with the mobile phase, the potassium phosphate buffer (67 mM, pH 7.0), to a final concentration of 50 μg/mL. All working solutions were filtered through a membrane of 0.45 µm pore size and vortexed for at least 30 s before injection. […] All solutions were stored at 4 °C. […] These concentrations were selected based on previous displacement studies. An aqueous buffer of a 67 mM solution of potassium phosphate was prepared by adjusting the pH to 7.0 with a solution of saturated NaOH. The aqueous buffer pH was controlled with a Crison® BasiC 20 pH meter.
(§6) Equation (5) can be used to describe the impact of the competitor (I) on the retention time of each analyte (A) [32, 58](5) 1/k=VMKI[I]/KAmL+VM/KAmL where KI is the association equilibrium constant of I at the binding site of competition with A, [I] is the concentration of the competitor in the mobile phase, and KA is the association equilibrium constant of A at the binding site of competition with I.
(§7) If a direct competition between the analyte and the competing agent occurs, a straight line with a positive slope is observed in the plot of 1/k versus [I]; if allosteric competition between the analyte and the competing agent occurs, a straight line with a negative slope is observed in the plot of 1/k versus [I]; and if random variations are observed, no competition between the analyte and the competing agent occurs.

HSA site I = biological target: T2, HSA site I (Homo sapiens, UniProt P02768); assay: Zonal displacement chromatography on HSA column with warfarin (site I probe); format: binding; details: competitor warfarin 5-20 µM in mobile phase; 13% ACN; plot of 1/k vs competitor concentration
T2 construct: catalogue number not given
Procedure: as §2, §3, §4, §1, §5, §6, §7

HSA [3] = details: cited from earlier work; remark: listed apart in the source
[4] = design: method as in PMID 26810883; details: ultrafiltration and LC-MS; cited from earlier work

T1 sequence (P02768 25-609): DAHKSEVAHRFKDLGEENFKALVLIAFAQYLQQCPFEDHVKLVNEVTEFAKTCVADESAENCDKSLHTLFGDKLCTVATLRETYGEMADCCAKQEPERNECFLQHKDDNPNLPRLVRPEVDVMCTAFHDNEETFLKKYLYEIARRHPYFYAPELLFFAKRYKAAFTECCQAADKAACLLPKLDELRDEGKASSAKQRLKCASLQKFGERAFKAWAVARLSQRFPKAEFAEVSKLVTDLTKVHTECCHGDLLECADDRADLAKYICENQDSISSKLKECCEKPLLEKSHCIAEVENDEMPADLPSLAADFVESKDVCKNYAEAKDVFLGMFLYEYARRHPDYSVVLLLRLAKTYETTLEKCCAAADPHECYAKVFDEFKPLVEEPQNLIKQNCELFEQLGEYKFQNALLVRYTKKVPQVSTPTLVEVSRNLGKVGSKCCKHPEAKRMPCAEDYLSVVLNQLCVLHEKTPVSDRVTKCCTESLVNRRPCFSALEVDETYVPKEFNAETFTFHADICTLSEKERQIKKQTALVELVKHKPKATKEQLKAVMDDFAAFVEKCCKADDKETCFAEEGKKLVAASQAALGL
T2 sequence (P02768 25-609): as above
Sequence of human serum albumin (HSA) (P02768 25-609): as above

Row | Structure (SMILES) | Interaction with (S)-ibuprofen on HSA (HSA site II) | Binding profile at HSA Site II (HSA site II) | Binding profile at HSA Site I (HSA site I) | Bound Fraction (%b) [2] | Retention factor (k) [2] | also measured
1 | CN(C)CCCN1c2ccccc2Sc2ccc(Cl)cc21 [chlorpromazine, reference compound] |  |  |  |  |  | reported %b to HSA (HSA [1]): > 90%; experimental %b to HSA (controls) [2]: 82.12%
2 | COC(=O)[C@@H](NC(=O)c1nn(CCCCCF)c2ccccc12)C(C)C [5F-AMB] | interact allosterically with (S)-ibuprofen; also recorded: Allosterically interacts with (S)-ibuprofen | do not compete with L-tryptophan; also recorded: Binding does not occur (no competition with L-tryptophan) | compete with warfarin for site I; also recorded: Binding occurs (competition with warfarin) | 98.9% | 87.30 | 
3 | CC(C)(C)[C@H](NC(=O)c1nn(Cc2ccc(F)cc2)c2ccccc12)C(N)=O [ADB-FUBINACA] | Allosterically interacts with (S)-ibuprofen | neither site I nor site II is its primary binding site in HSA; also recorded: Binding does not occur (no competition with L-tryptophan) | neither site I nor site II is its primary binding site in HSA; also recorded: Binding does not occur (no competition with warfarin) | 99.8% | 619.87 | 
4 | N[C@@H](Cc1c[nH]c2ccccc12)C(=O)O [L-Tryptophan, L-tryptophan] |  |  |  |  |  | Affinity constant of competitor for HSA (Lit.) (HSA [3]): KI L-Tryptophan (M^−1) (Lit. 4.4 × 10^4 M^−1) [55]
5 | Cc1c(C(=O)c2cccc3ccccc23)c2cccc3c2n1[C@H](CN1CCOCC1)CO3 [WIN 55,212-2] |  |  |  |  |  | plasma protein binding [4]: 95%
6 | COc1ccc2c(c1)c(CC(=O)O)c(C)n2C(=O)c1ccc(Cl)cc1 [indomethacin] |  |  |  |  |  | reported %b to HSA (HSA [1]): 97.8%
7 | O=C(c1cccc2ccccc12)c1nc2ccccc2n1CCCCCF [FUBIMINA] |  |  |  | 99.9% | 968.23 | 
8 | CCCCCn1nc(C(=O)N[C@H](C(N)=O)C(C)C)c2ccccc21 [AB-PINACA] | interact allosterically with (S)-ibuprofen; also recorded: Allosterically interacts with (S)-ibuprofen | do not compete with L-tryptophan; also recorded: Binding does not occur (no competition with L-tryptophan) | compete with warfarin for site I; also recorded: Binding occurs (competition with warfarin) | 98.7% | 79.11 | 
9 | COC(=O)[C@@H](NC(=O)c1nn(Cc2ccc(F)cc2)c2ccccc12)C(C)C [AMB-FUBINACA] | interact allosterically with (S)-ibuprofen; also recorded: Allosterically interacts with (S)-ibuprofen | do not compete with L-tryptophan; also recorded: Binding does not occur (no competition with L-tryptophan) | compete with warfarin for site I; also recorded: Binding occurs (competition with warfarin) | 99.7% | 326.38 | 
10 | Cc1ncc([N+](=O)[O-])n1CCO [metronidazole, reference compound] |  |  |  |  |  | reported %b to HSA (HSA [1]): 20%; experimental %b to HSA (controls) [2]: 19.78%
11 | CC(=O)CC(c1ccccc1)c1c(O)c2ccccc2oc1=O (centres unmarked) [Warfarin, warfarin] |  |  |  |  |  | Affinity constant of competitor for HSA (Lit.) (HSA [3]): KI Warfarin (M^−1) (Lit. 3.3 × 10^5 M^−1) [55]
12 | CC(C)[C@H](NC(=O)c1nn(CC2CCCCC2)c2ccccc12)C(N)=O | exhibits allosteric interactions with (S)-ibuprofen; also recorded: Allosterically interacts with (S)-ibuprofen | bind to both site I and site II of HSA; also recorded: Binding occurs (competition with L-tryptophan) | bind to both site I and site II of HSA; also recorded: Binding occurs (competition with warfarin) | 99.7% | 294.40 | 
